In patent US11319305B2, “Pyrimidine sulfamide derivative and preparation method and medical application thereof” (SHIJIAZHUANG SAGACITY NEW DRUG DEVELOPMENT CO., LTD., priority 2017, dated 2022):
pIC50: −log10 of the molar value.

Key:
human ETB receptor = target: T1, human ETB receptor (Homo sapiens, UniProt P24530); experiment: In vitro antagonistic effect against human ETB receptor, Ca2+ signal in transfected CHO cells; type: cell-based; conditions: response to 0.3 nM endothelin-1
T1 construct: host or cells: CHO cells
T1 sequence (P24530 27-442): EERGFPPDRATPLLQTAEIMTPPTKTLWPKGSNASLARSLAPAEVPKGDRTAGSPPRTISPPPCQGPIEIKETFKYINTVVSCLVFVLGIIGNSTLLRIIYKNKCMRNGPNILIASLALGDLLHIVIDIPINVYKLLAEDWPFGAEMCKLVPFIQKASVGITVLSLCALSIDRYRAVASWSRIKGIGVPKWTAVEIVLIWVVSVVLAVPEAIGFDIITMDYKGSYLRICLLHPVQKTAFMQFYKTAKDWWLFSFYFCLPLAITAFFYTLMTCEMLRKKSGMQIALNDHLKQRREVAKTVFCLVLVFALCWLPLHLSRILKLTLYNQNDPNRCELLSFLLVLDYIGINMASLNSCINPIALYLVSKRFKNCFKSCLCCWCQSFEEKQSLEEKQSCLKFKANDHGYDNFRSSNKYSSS
Procedure: Antagonist activity of the compound against human ETB receptors expressed in transfected CHO cells was evaluated by measuring the effect of the compound on the changes in the cytoplasmic Ca^2+ ion signal induced by human ETB receptor agonists. The functional activity of the ETB receptor antagonistic effect was tested in Eurofins-Cerep SA according to current standard procedures.
1. Cells were suspended in DMEM buffer (Invitrogen) and then distributed in 384-well plate (100 μL/well) at a density of 3×10^4 cells/well;
(§1) 2. Probenecid in HBSS buffer (Invitrogen) supplemented with 20 mM Hepes (Invitrogen) (pH 7.4) was mixed with fluorescent probe (Fluo4 NW, Invitrogen), the mixture was added to each wells, then balanced with cells at 37° C. for 60 minutes, and then balanced with cells at 22° C. for 15 minutes;
(§2) 3. The test plate was placed in a microplate reader (CellLux, PerkinElmer), a DMSO solution or HBSS buffer with an appropriate concentration of the test compound and the positive control was added, and 0.3 nM endothelin-1 or HBSS buffer (base control) was added after 5 minutes, and then the change in fluorescence intensity proportional to the concentration of Ca^2+ ions of […] was measured;
4. Results were shown as the percent inhibition of control response to 0.3 nM endothelin-1;
5. Standard positive control was BQ-788, several concentrations were tested in each experiments. The data was analyzed using Prism to generate a concentration-response curve, and IC50 values of the compounds were calculated.

human ETA receptor = target: T2, human ETA receptor (Homo sapiens, UniProt P25101); experiment: In vitro antagonistic effect against human ETA receptor, Ca2+ signal in SK-N-MC cells; type: cell-based; conditions: for pIC50: SK-N-MC cells, response to 1 nM endothelin-1; for ETA/ETB selectivity: ratio of ETB IC50 to ETA IC50
T2 construct: endogenously expressed human ETA receptors in SK-N-MC cells; host or cells: SK-N-MC cells
T2 sequence (P25101 21-427): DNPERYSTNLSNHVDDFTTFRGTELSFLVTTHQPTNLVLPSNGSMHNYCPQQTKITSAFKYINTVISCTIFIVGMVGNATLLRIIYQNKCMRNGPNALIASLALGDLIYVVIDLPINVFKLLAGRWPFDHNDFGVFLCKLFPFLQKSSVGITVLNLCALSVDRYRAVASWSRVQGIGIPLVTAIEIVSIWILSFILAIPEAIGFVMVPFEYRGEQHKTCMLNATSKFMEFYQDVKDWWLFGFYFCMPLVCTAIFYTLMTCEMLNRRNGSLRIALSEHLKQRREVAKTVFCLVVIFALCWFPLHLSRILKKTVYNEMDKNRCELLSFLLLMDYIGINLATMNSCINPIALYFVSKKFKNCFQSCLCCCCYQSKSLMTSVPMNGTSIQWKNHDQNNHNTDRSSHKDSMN
Procedure: Experimental Embodiment 1: In Vitro Test of Antagonistic Effect Against Human ETA Receptor
Antagonistic activity of the compounds against endogenously expressed human ETA receptors in SK-N-MC cells was evaluated by measuring the effect of compounds on the changes in cytoplasmic Ca^2+ ion signal induced by human ETA receptor agonists using fluorescence detection methods. The functional activity of the ETA receptor antagonistic effect was tested in Eurofins-Cerep SA according to current standard procedures.
1. Cells were suspended in Dulbecco's modified Eagle medium solution (DMEM, Invitrogen) supplemented with 1% FCSd, then distributed in 384-well plate (100 μL/well) at a density of 5×10^4 cells/well;
as §1, with “Hank's balanced salt solution (HBSS, Invitrogen)” for “HBSS buffer (Invitrogen)”, “4-(2-hydroxyethyl)piperazine-1-ethanesulfonic acid (Hepes, Invitrogen)” for “Hepes (Invitrogen)”
as §2, with “1” for “0.3”
5. Standard positive control was BQ-123, several concentrations were tested in each experiments. The data was analyzed using Prism to generate a concentration-response curve, and IC50 values of the compounds were calculated.

[1] = Pharmacokinetics in beagle dogs; type: in vivo
Description: Experimental embodiment 7: Evaluation on the pharmacokinetic of compounds in beagle dogs
Male beagle dogs were selected as the tested animals in this study, and the drug concentration in plasma of beagle dogs at different time points via intravenous injection or oral perfusion gastric administration of the test compounds was quantitatively measured using LC/MS/MS method to evaluate the pharmacokinetic characteristics of the test compounds in beagle dogs.
Beagle dog (male, 6-15 kg, more than 6 months old, Beijing Marshall Biotechnology Co., Ltd.).
A clear solution of the test compound was injected intravenously into beagle dogs (overnight fasting), or administrated orally to beagle dogs by gavage (overnight fasting). For intravenous administration, 500 μL of blood was collected from peripheral vessels at 0 hour (pre-dosing) and at 0.0833, 0.25, 0.5, 1, 2, 4, 6, 8 and 24 hours after dosing, which was then placed in an anticoagulation tube supplemented with EDTA-K2 (Suzuki Healthcare Medical Co., Ltd.). For oral gastric administration, 500 μL of blood was collected from peripheral vessels at 0 hour (pre-dosing) and at 0.25, 0.5, 1, 2, 4, 6, 8 and 24 hours after dosing, which was then placed in an anticoagulation tube supplemented with EDTA-K2. The mixture in the anticoagulation tube was vortexed to mix thoroughly, and then centrifuged at 13000 rpm for 10 minutes to collect the plasma. Plasma drug concentration was measured by LC/MS/MS method, and related pharmacokinetic parameters were calculated using WinNonlin™ Version 6.3 (Pharsight, Paul View, Calif.) pharmacokinetics software in non-room model linear logarithmic trapezoids method.

[2] = male, dog, plasma, intravenous injection 1 mg/kg

pIC50 (human ETB receptor)	pIC50 (human ETA receptor)	ETA/ETB selectivity (human ETA receptor)	The area under the plasma concentration time curve ([1]; intravenous injection 1 mg/kg) [µM·h]	bioavailability ([1]; male, beagle, dog, plasma, po, 3 mg/kg, oral administration 3 mg/kg, read-out: Bioavailability F) [%]	half-life [1, 2] [h]	Peak concentration ([1]; oral administration 3 mg/kg) [µM]	Peak time ([1]; oral administration 3 mg/kg) [h]	The area under the plasma concentration time curve ([1]; oral administration 3 mg/kg) [µM·h]	Bioavailability F ([1]; oral administration 3 mg/kg, 3 mg/kg) [%]	Plasma clearance rate ([1]; intravenous injection 1 mg/kg, 1 mg/kg) [mL/min/kg]	clearance ([1]; male, beagle, dog, plasma, iv, 1 mg/kg, intravenous injection 1 mg/kg, read-out: Plasma clearance rate) [mL/min/kg]	Structure (SMILES)
4.07	8.55	30300	46.94	> 50	2.31	16.20	0.38	73.77	52.4	–	–	NS(=O)(=O)Nc1ncnc(OCCOc2ncc(Br)cn2)c1-c1ccc2c(c1)OCO2 [WX001]
4.18	8.85	47100	7.56	–	0.86	12.75	0.38	33.40	–	4.79	< 5	COCCNS(=O)(=O)Nc1ncnc(OCCOc2ncc(Br)cn2)c1-c1ccc2c(c1)OCO2 [WX013]
